Experimental data as given in PubChem BioAssay AID1033 (Sanford-Burnham Center for Chemical Genomics, 2008).
The source made the active and inactive calls. No rule for the calls is given here.

These compounds were tested against Chaperone protein DnaK (Escherichia coli (strain K12)) (UniProt P0A6Y8) (assay: binders of DnaK substrate-binding domain, biophysical, NMR, chaperone (AID 1033)). Settings: Purified DnaK SBD, NMR ligand binding.
Chain of Chaperone protein DnaK (Escherichia coli (strain K12)) (P0A6Y8 whole entry, looked up, the tested form may be a part): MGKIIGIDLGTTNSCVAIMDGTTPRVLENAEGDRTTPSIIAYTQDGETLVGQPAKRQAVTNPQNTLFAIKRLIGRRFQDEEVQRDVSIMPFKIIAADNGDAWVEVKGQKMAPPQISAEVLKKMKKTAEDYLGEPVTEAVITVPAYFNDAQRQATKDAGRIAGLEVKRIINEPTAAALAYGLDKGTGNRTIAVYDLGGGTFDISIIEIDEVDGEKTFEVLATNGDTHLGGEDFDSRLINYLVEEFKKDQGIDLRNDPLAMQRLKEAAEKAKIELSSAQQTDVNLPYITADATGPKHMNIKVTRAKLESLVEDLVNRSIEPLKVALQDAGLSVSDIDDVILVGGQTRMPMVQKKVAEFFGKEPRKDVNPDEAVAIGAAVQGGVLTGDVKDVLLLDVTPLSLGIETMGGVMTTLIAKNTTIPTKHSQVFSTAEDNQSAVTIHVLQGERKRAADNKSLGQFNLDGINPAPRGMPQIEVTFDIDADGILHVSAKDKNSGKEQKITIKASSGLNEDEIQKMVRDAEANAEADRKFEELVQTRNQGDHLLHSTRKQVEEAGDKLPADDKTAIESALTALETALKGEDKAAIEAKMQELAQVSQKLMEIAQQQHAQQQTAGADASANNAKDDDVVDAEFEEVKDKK

Row | SMILES | Kd
1 | O=C(NC(=S)NCc1cccnc1)c1ccco1 | > 4 mM (inactive)
2 | NCCc1ccc(S(N)(=O)=O)cc1 | > 4 mM (inactive)
3 | O=C(NN1C(=O)C2C3C=CC(C3)C2C1=O)C1CC=CCC1 (stereo not given) | > 4 mM (inactive)
4 | CCC(=O)NC(=S)Nc1ccc(O)cc1 | > 4 mM (inactive)
5 | CSc1nc2nc(C)cc(=O)n2[nH]1 | > 4 mM (inactive)
6 | OC(c1ccccc1)c1ccccn1 (stereo not given) | > 4 mM (inactive)
7 | Cc1onc(-c2ccccc2)c1CN | > 4 mM (inactive)
8 | CCOC(=O)C1CCN(Cc2ccccc2)CC1 | > 4 mM (inactive)
9 | O=C(Nc1nncs1)c1c(F)cccc1F | > 4 mM (inactive)
10 | NC(=O)CSc1ccccn1 | > 4 mM (inactive)
11 | Nc1ccc2c(c1)C(=O)OC2 | > 4 mM (inactive)
12 | NC(=O)C1(c2ccccc2)CCOCC1 | > 4 mM (inactive)
13 | O=c1ccc2ccc(O)cc2o1 | > 4 mM (inactive)
14 | O=C(NCc1cccs1)c1ccncc1 | > 4 mM (inactive)
15 | Cc1cc(C)nc(N2CC(=O)N(C)C2=N)n1 | > 4 mM (inactive)
16 | Cc1nc2cc(Cl)ccc2n1CCO | > 4 mM (inactive)
17 | Cc1ccc(CCC(N)=O)o1 | > 4 mM (inactive)
18 | O=C1OCCC1Sc1nc2ccccc2c(=O)[nH]1 (stereo not given) | > 4 mM (inactive)

Row | SMILES | Kd
19 | Cc1cccc(C)c1NC(=O)CN1CCOCC1 | > 4 mM (inactive)
20 | COc1ccccc1NC(=O)NC(N)=O | > 4 mM (inactive)
21 | COc1ccccc1NC(N)=S | > 4 mM (inactive)
22 | Cc1c(F)cccc1NS(=O)(=O)c1ccccc1C#N | > 4 mM (inactive)
23 | O=C(O)c1ncoc1-c1ccccc1 | > 4 mM (inactive)
24 | NC(C(=O)O)C(O)c1ccccc1 (stereo not given) | > 4 mM (inactive)
25 | OCc1cccc2c1OCCO2 | > 4 mM (inactive)
26 | Cn1c(NCC(=O)O)nc2c1c(=O)[nH]c(=O)n2C | > 4 mM (inactive)
27 | COc1cc(OC)c2ccc(=O)oc2c1 | > 4 mM (inactive)
28 | c1cnc(N2CCSCC2)nc1 | > 4 mM (inactive)
29 | OCc1ccccc1CN1CCOCC1 | > 4 mM (inactive)
30 | Cn1ncc(C(=O)O)c1-c1ccccc1 | > 4 mM (inactive)
31 | CN1CCN(CC(=O)NC2CCCCC2)CC1 | > 4 mM (inactive)
32 | CN1C(=O)/C(=C/c2ccc(O)cc2O)SC1=S | > 4 mM (inactive)
33 | O=[N+]([O-])c1cccc(CN2CCC(O)CC2)c1 | > 4 mM (inactive)
34 | Cc1scc(C(=O)Nn2cnnc2)c1-c1ccccc1 | > 4 mM (inactive)
35 | CN(C)S(=O)(=O)c1ccc(C(=O)NN)cc1 | > 4 mM (inactive)
